The source of these data is patent publication US20050222204A1, “Opioid receptor antagonists” (priority 2002, published 2005).

Where two headings read alike, the source gives them in different places.

Data set [1] concerns the target T1, human opioid receptors, Delta (DOR) (Homo sapiens, UniProt P41143).
T1 construct: expressed in transfected cells
The experiment in a line: GTPγS functional antagonist assay (SPA), delta receptor, vs DPDPE. It is filed as biochemical. How it is done:
(§1) An SPA-based GTPgS assay format was developed based on previous opioid (Emmerson et al., J. Pharm Exp Ther 278,1121,1996; Homg et al., Society for Neuroscience Abstracts, 434.6, 2000) and muscarinic (DeLapp et al., JPET 289, 946, 1999) assay formats. Membranes were resuspended in 20 mM HEPES, 100 mM NaCl, 5 mM MgCl2, 1 mM DTT, and 1 mM EDTA. […] of GTPγ[35S], compound, membrane suspension (20 microgram/well), and wheat germ agglutinin coated SPA beads (1 mg/well) were added to clear bottom 96 well assay plates. GDP ([…]) was added to the membrane solution prior to addition to the assay plates. Plates were sealed and incubated for four hours at room temperature then placed in a refrigerator overnight to allow the beads to settle. […] Plates were warmed to room temperature and counted in a Wallac Microbeta scintillation counter. For antagonist assays, specific agonists were added at the following concentrations: (MOR) DAMGO 1 micromolar, (DOR) DPDPE 30 nM, (KOR) U69593 300 nM. Kb's were determined by Cheng-Prusoff equation (Cheng and Prusoff, 22,3099 1973).

In data set [2] the target is T2, human opioid receptors, Kappa (KOR) (Homo sapiens, UniProt P41145).
T2 construct: expressed in transfected cells
T2 sequence (P41145 whole entry): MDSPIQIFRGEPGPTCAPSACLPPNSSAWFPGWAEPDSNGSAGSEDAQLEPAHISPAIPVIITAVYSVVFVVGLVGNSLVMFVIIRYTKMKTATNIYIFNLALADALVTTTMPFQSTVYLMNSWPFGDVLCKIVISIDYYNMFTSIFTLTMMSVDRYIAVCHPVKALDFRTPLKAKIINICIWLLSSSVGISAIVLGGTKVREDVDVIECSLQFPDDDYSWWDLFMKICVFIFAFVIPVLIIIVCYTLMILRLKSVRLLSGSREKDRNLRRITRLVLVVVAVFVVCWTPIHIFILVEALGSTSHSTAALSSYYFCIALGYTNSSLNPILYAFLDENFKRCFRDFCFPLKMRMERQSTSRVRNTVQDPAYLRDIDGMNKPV
The experiment in a line: GTPγS functional antagonist assay (SPA), kappa receptor, vs U69593. It is filed as biochemical. How it is done: as §1

The target of data set [3] is T3, human opioid receptors, Mu (MOR) (Homo sapiens, UniProt P35372).
T3 construct: expressed in transfected cells
T3 sequence (P35372 whole entry): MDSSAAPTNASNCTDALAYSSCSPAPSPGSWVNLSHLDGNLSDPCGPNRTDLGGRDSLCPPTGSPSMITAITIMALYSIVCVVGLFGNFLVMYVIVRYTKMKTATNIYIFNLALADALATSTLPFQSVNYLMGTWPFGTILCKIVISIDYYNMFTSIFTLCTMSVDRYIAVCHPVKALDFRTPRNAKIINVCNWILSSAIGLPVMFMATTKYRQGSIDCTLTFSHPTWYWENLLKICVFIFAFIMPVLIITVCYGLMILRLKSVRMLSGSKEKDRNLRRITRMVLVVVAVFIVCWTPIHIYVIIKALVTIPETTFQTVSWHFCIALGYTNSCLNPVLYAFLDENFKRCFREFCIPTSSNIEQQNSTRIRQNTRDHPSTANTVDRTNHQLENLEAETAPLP
The experiment in a line: GTPγS functional antagonist assay (SPA), mu receptor, vs DAMGO. It is filed as biochemical. On the procedure: as §1

The test system of another data set is male Long-Evans rats. The data set is described as follows: Antiorexigenic effect: food consumption in fasted rats. It counts as in vivo, rat. Conditions: oral 3 mg/kg; rats fasted 18 hours; over 1 hour, 2 hour and 4 hour periods; vs untreated control. On the procedure:
Compounds were tested for effects on food consumption in male Long-Evans rats which had been fasted for 18 hours prior to testing. The weight of food consumed was measured for groups of 6 rats treated with test substance and compared to the food consumed by an untreated control group of 6 animals.

Data set [4] has as its target T4, human Cytochrome 2D6 (CYP2D6) (Homo sapiens, UniProt P10635).
T4 construct: from tissue; host or cells: human liver microsomes
The experiment in a line: Assay for inhibition of CYP2D6 activity (human liver microsomes, bufuralol substrate). It is filed as in vitro ADME. On the procedure: The reduced potential for inhibition of cytochrome P450 was discovered using a standard assay that monitors the compound's ability to inhibit Cyp2D6 a member of the cytochrome P450 family of enzymes.
Assay for Inhibition of CYP2D6 Activity
The inhibition of human Cytochrome 2D6 (CYP2D6) activity was studied using a validated high through-put screening assay. A 3 uL aliquot of an 8 mM stock solution of compound was delivered to 397 uL of pH 7.4 (50 mM) phosphate buffer resulting in an initial concentration of 60 uM. The compound dose solutions were prepared by serial dilutions to produce concentrations of […]. A 6 mM NaDPH stock solution was prepared by addition of 100 mg of NaDPH to 20 mL of pH 7.4 buffer. A 600 uL aliquot of Human liver Microsomes (HLM-20.0 mg/ml) was added to 20 ml of pH 7.4 phosphate buffer to produce a 0.6 mg/ml solution of HLM. To the HLM mixture was added 120 uL of a 10 mM bufurolol solution (CYP2D6 substrate) producing a final bufuralol concentration of 60 uM. To each assay plate was added 100 uL of the compound dose solutions, 25 uL NaDPH and 25 uL HLM/bufurolol solution. Samples were incubated at 37° C. for 10 minutes and the reaction was quenched with 25 uL of a 2% perchloric acid solution, followed by centrifugation at 3200 rpm for 30 min. The resulting supernatant was assayed for bufurolol concentrations using a Turbo Ion Spray API 150EX MS method. The calculated IC50 value represents the compound concentration that results in a 50% reduction in burfurolol consumption. Table 3 below provides a comparative data for inhibition of CyP2D6.
Background: Liver microsomes are a subcellular fraction often used to study metabolism.

A short description of data set [5]: Bioavailability in rat (Table 2). To be noted: in vivo, read-out: Metabolis Rat (bioavailability).

T1 sequence (P41143 whole entry): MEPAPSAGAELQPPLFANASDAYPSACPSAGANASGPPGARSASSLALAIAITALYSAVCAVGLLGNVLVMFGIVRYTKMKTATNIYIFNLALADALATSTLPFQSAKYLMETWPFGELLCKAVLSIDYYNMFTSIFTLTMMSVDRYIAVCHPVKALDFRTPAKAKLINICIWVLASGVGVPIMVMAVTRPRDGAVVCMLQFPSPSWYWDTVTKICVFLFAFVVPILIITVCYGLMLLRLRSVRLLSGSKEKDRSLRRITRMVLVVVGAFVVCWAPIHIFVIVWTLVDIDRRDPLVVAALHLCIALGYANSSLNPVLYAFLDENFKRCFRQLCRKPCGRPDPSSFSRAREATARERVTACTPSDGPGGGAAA
T4 sequence (P10635 whole entry): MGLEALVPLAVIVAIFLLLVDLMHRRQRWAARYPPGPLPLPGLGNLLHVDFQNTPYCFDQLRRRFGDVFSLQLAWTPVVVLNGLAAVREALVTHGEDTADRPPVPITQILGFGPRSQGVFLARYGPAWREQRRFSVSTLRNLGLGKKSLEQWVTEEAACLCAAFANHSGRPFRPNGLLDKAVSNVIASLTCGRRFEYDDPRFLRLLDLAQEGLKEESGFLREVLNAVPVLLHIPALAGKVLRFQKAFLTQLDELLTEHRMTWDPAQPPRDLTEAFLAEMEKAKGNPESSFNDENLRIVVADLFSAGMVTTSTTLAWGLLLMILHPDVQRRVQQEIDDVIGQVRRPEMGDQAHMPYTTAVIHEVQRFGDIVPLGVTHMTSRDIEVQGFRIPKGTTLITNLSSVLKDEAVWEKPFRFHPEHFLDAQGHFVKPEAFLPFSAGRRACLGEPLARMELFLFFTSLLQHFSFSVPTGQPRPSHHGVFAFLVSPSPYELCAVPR

Regarding `C[C@H]1CN(CC[C@H](O)C2CCCCC2)CC[C@@]1(C)c1cccc(O)c1` [(III)], the Kb in data set [1] (read-out: In Vitro GTPγ-S human opioid receptors Delta (Kb)) came to 1.19 nM.

`CCCCCCN1CC[C@@](C)(c2cccc(C(N)=O)c2)[C@@H](C)C1` [(II), reference compound]: the Kb in data set [2] was 4.51 nM; in data set [3] it was 0.31 nM; in data set [1], 8.72 nM.

Consider `C[C@H]1CN(CC[C@H](O)C2CCCCC2)CC[C@@]1(C)c1cccc(C(N)=O)c1` (stereo in doubt) [(I), 3-[1-(3-Cyclohexyl-3-hydroxy-propyl)-3,4-dimethyl-piperidin-4-yl]-benzamide], for which the “inhibition of cumulative food consumed” value in the data set on male Long-Evans rats is “statistically significant inhibition”. Moreover, the Kb came to 1.93 nM in data set [2], 0.12 nM in data set [3] and 2.81 nM in data set [1]. Also, the “fold more potent than the compound of formula (II) in GTP-γ-S functional antagonist assay” value in data set [3] (versus compound (II) of Table 1, mu, kappa, delta) is on record as “at least 2 fold”. In addition, the IC50 – broadly, the midpoint of a concentration-inhibition curve – in data set [4] (human liver microsomes, bufuralol substrate, 37° C., 10 minutes) is 39000 nM. Moreover, the “times less likely to inhibit the cytochrome P450 enzyme system compared to compound (III)” value in data set [4] (versus compound (III) of Table 3) was “over 4 times”. Moreover, the “times less likely to cause inhibition of the cytochrome P450 enzyme compared to compound (II)” value in data set [4] (versus prior clinical trial candidate compound (II) of Table 3) is recorded as ~16 times. Further, the bioavailability (commonly the share of a dose that reaches the circulation, judged against a reference dose that is usually intravenous) in data set [5] amounted to 32%.
